Measurements published in patent EP4603105A1, “PHARMACEUTICAL COMPOSITION CONTAINING CYCLIC COMPOUND HAVING SELECTIVE KRAS INHIBITORY EFFECT AGAINST HRAS AND NRAS” (CHUGAI SEIYAKU KABUSHIKI KAISHA, priority 2022, dated 2024).

How the values were obtained:
[1] = target: GDP-bound KRAS wild-type protein (Homo sapiens, UniProt P01116); experiment: Binding to KRAS by surface plasmon resonance (SPR), dissociation constant KD; conditions: 1:1 binding model
Procedure, shortened: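 Single-cycle kinetics on GDP-loaded biotin-Avi RAS captured to ~100–300 RU; 75 s ascending injections, 100 µL/min, 30°C. HBS pH 7.4 + 10 mM MgCl2/10 µM GDP/4% DMSO. 1:1 fit, KD.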

[2] = target: GDP-bound NRAS wild-type protein (Homo sapiens, UniProt P01111); experiment: Binding to NRAS by surface plasmon resonance (SPR), KD and KD ratio to KRAS; conditions: ratio of KD for GDP-bound NRAS wild-type protein to KD for KRAS
Procedure, shortened: (§1)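 Captured GDP-RAS (~100–300 RU) was exposed to increasing compound concentrations, 75 s per step, in running buffer with 10 µM GDP, 10 mM MgCl2 and 4% DMSO at pH 7.4.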

[3] = target: HRAS wild-type protein (Homo sapiens, UniProt P01112); experiment: Binding to HRAS by surface plasmon resonance (SPR), KD and KD ratio to KRAS; conditions: ratio of KD for HRAS wild-type protein to KD for KRAS
Procedure, shortened: as §1

[4] = system: human lung cancer strain NCI-H441; format: cell-based
Procedure, shortened: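 Step one: dispense the test compound in serial DMSO dilutions. Step three: add the reagent and measure […].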

Sequence of GDP-bound KRAS wild-type protein (P01116 1-188 isoform P01116-2): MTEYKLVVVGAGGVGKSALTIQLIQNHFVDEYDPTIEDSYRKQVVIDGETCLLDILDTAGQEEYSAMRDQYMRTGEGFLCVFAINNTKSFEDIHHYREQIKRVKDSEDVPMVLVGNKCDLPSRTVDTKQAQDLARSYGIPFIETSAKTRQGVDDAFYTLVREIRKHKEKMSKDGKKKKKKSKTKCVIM
Sequence of HRAS wild-type protein (P01112 whole entry): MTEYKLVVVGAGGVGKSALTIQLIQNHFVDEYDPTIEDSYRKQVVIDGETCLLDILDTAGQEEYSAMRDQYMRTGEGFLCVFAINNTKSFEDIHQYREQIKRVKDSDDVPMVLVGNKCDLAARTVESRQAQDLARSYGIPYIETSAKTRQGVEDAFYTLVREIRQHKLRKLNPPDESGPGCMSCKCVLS
Sequence of GDP-bound NRAS wild-type protein (P01111 whole entry): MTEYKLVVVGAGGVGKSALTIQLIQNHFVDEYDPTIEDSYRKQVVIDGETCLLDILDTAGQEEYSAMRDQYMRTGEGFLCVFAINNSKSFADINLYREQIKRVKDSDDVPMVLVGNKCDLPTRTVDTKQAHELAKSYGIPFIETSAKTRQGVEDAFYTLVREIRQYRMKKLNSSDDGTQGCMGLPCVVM

Compound	Kd [1] [nM]	NRAS /KRAS [2]	HRAS /KRAS [3]	IC50 [4] [nM]
CCC[C@H]1C(=O)N[C@@H]([C@@H](C)CC)C(=O)N(C)CC(=O)N(C)[C@H]2C/C=C\CCN(C2=O)[C@@H](Cc2ccc(C(F)(F)F)cc2)C(=O)N(C)CC(=O)N[C@@H](CCc2ccc3c(C)c(C)n(C)c3c2)C(=O)N2C[C@H](OCC)C[C@H]2C(=O)NC2(CC(C)(C)C2)C(=O)N(C)[C@@H](C(CC)CC)C(=O)N(C)[C@H](C(=O)N(C)C)CC(=O)N1C [PP2904]	3.8	AA (a compound having 20 or more is denoted as AA)	A (a compound having 10 or more and less than 20 is denoted as A)	82.4
CCC[C@H]1C(=O)N[C@@H]([C@@H](C)CC)C(=O)N(C)CC(=O)N(C)[C@H]2C/C=C\CCN(C2=O)[C@@H](Cc2ccc(C)cc2)C(=O)N(C)CC(=O)N[C@@H](CCc2ccc3c(C)c(C)n(C)c3c2)C(=O)N2C[C@H](OCC)C[C@H]2C(=O)NC2(CC(C)(C)C2)C(=O)N(C)[C@@H](C(CC)CC)C(=O)N(C)[C@H](C(=O)N(C)C)CC(=O)N1C [PP2906]	5.5	A (a compound having 10 or more and less than 20 is denoted as A)	A (a compound having 10 or more and less than 20 is denoted as A)	99.3
CCC[C@H]1C(=O)N[C@@H]([C@@H](C)CC)C(=O)N(C)CC(=O)N(C)[C@H]2C/C=C\CCN(C2=O)[C@@H](Cc2ccc(C)cc2)C(=O)N(C)CC(=O)N[C@@H](CCc2ccc3c(C)cn(C)c3c2)C(=O)N2C[C@H](OCC)C[C@H]2C(=O)NC2(CC(C)(C)C2)C(=O)N(C)[C@@H](C(CC)CC)C(=O)N(C)[C@H](C(=O)N(C)C)CC(=O)N1C [PP2910]	3	AA (a compound having 20 or more is denoted as AA)	A (a compound having 10 or more and less than 20 is denoted as A)	39.8
CCC[C@H]1C(=O)N[C@@H]([C@@H](C)CC)C(=O)N(C)CC(=O)N(C)[C@H]2C/C=C\CCN(C2=O)[C@@H](Cc2ccc(C)cc2)C(=O)N(C)CC(=O)N[C@@H](CCc2ccc3ccn(C)c3c2)C(=O)N2C[C@H](OCC)C[C@H]2C(=O)NC2(CC(C)(C)C2)C(=O)N(C)[C@@H](C(CC)CC)C(=O)N(C)[C@H](C(=O)N(C)C)CC(=O)N1C [PP2914]	14	AA (a compound having 20 or more is denoted as AA)	A (a compound having 10 or more and less than 20 is denoted as A)	311
CCC(CC)[C@H]1C(=O)N(C)[C@H](C(=O)N(C)C)CC(=O)N(C)[C@@H](COC)C(=O)N[C@@H]([C@@H](C)CC)C(=O)N(C)CC(=O)N(C)[C@H]2C/C=C\CCN(C2=O)[C@@H](Cc2ccc(C)cc2)C(=O)N(C)CC(=O)N[C@@H](CCc2cc(F)c(C(F)(F)F)c(F)c2)C(=O)N2CCCC[C@H]2C(=O)NC2(CC(C)(C)C2)C(=O)N1C [PP2922]	1.1	AA (a compound having 20 or more is denoted as AA)	A (a compound having 10 or more and less than 20 is denoted as A)	55.4
CCC(CC)[C@H]1C(=O)N(C)[C@H](C(=O)N(C)C)CC(=O)N(C)[C@@H](COC)C(=O)N[C@@H]([C@@H](C)CC)C(=O)N(C)CC(=O)N(C)[C@H]2C/C=C\CCN(C2=O)[C@@H](Cc2ccc(C)cc2)C(=O)N(C)CC(=O)N[C@@H](CCc2ccc(C(F)(F)F)c(Cl)c2)C(=O)N2CCCC[C@H]2C(=O)NC2(CC(C)(C)C2)C(=O)N1C [PP2931]	1.9	A (a compound having 10 or more and less than 20 is denoted as A)	A (a compound having 10 or more and less than 20 is denoted as A)	65.5
CCC(CC)[C@H]1C(=O)N(C)[C@H](C(=O)N(C)C)CC(=O)N(C)[C@@H](COC)C(=O)N[C@@H]([C@@H](C)CC)C(=O)N(C)CC(=O)N(C)[C@H]2C/C=C\CCN(C2=O)[C@@H](Cc2ccc(C)cc2)C(=O)N(C)CC(=O)N[C@@H](CCc2ccc(C(F)(F)F)c(OC)c2)C(=O)N2CCCC[C@H]2C(=O)NC2(CC(C)(C)C2)C(=O)N1C [PP2937]	1.1	A (a compound having 10 or more and less than 20 is denoted as A)	A (a compound having 10 or more and less than 20 is denoted as A)	137
CCC(CC)[C@H]1C(=O)N(C)[C@H](C(=O)N(C)C)CC(=O)N(C)[C@@H](COC)C(=O)N[C@@H]([C@@H](C)CC)C(=O)N(C)CC(=O)N(C)[C@H]2C/C=C\CCN(C2=O)[C@@H](Cc2ccc(C)cc2)C(=O)N(C)CC(=O)N[C@@H](CCc2ccc(C(F)(F)F)c(OC)c2)C(=O)N2CCOC[C@H]2C(=O)NC2(CC(C)(C)C2)C(=O)N1C [PP2938]	1.1	AA (a compound having 20 or more is denoted as AA)	A (a compound having 10 or more and less than 20 is denoted as A)	104
CCC[C@H]1C(=O)N[C@@H]([C@@H](C)CC)C(=O)N(C)CC(=O)N(C)[C@H]2C/C=C\CCN(C2=O)[C@@H](Cc2ccc(C)cc2)C(=O)N(C)CC(=O)N[C@@H](CCc2cc(Cl)c3sccc3c2)C(=O)N2C[C@H](OCC)C[C@H]2C(=O)NC2(CC(C)(C)C2)C(=O)N(C)[C@@H](C2CCCC2)C(=O)N(C)[C@H](C(=O)N(C)C)CC(=O)N1C [PP2947]	0.12	B (a compound having 3 or more and less than 10 is denoted as B)	B (a compound having 3 or more and less than 10 is denoted as B)	3.5
CCC[C@H]1C(=O)N[C@@H]([C@@H](C)CC)C(=O)N(C)CC(=O)N(C)[C@H]2C/C=C\CCN(C2=O)[C@@H](Cc2ccc(C(F)(F)F)cc2)C(=O)N(C)CC(=O)N[C@@H](CCc2ccc3sc(F)c(C)c3c2)C(=O)N2C[C@H](OCC)C[C@H]2C(=O)NC2(CC(C)(C)C2)C(=O)N(C)[C@@H](C2CCCC2)C(=O)N(C)[C@H](C(=O)N(C)C)CC(=O)N1C [PP2948]	0.55	A (a compound having 10 or more and less than 20 is denoted as A)	A (a compound having 10 or more and less than 20 is denoted as A)	3.3
CCC[C@H]1C(=O)N[C@@H]([C@@H](C)CC)C(=O)N(C)CC(=O)N(C)[C@H]2C/C=C\CCN(C2=O)[C@@H](Cc2ccc(C)cc2)C(=O)N(C)CC(=O)N[C@@H](CCc2cc(Cl)c3c(ccn3C)c2)C(=O)N2C[C@H](OCC)C[C@H]2C(=O)NC2(CC(C)(C)C2)C(=O)N(C)[C@@H](C2CCCC2)C(=O)N(C)[C@H](C(=O)N(C)C)CC(=O)N1C [PP2951]	1	A (a compound having 10 or more and less than 20 is denoted as A)	A (a compound having 10 or more and less than 20 is denoted as A)	37
CCC(CC)[C@H]1C(=O)N(C)[C@H](C(=O)N(C)C)CC(=O)N(C)[C@@H](COC)C(=O)N[C@@H]([C@@H](C)CC)C(=O)N(C)CC(=O)N(C)[C@H]2C/C=C\CCN(C2=O)[C@@H](Cc2ccc(C)cc2)C(=O)N(C)CC(=O)N[C@@H](CCc2cc(F)c(C(F)(F)F)c(F)c2)C(=O)N2CCCCC[C@H]2C(=O)NC2(CC(C)(C)C2)C(=O)N1C [PP2960]	0.32	A (a compound having 10 or more and less than 20 is denoted as A)	A (a compound having 10 or more and less than 20 is denoted as A)	8.9
CCC(CC)[C@H]1C(=O)N(C)[C@H](C(=O)N(C)C)CC(=O)N(C)[C@@H](COC)C(=O)N[C@@H]([C@@H](C)CC)C(=O)N(C)CC(=O)N(C)[C@H]2C/C=C\CCN(C2=O)[C@@H](Cc2ccc(C)cc2)C(=O)N(C)CC(=O)N[C@@H](CCc2ccc(C(F)(F)F)c(Cl)c2)C(=O)N2CCCCC[C@H]2C(=O)NC2(CC(C)(C)C2)C(=O)N1C [PP2966]	0.57	A (a compound having 10 or more and less than 20 is denoted as A)	A (a compound having 10 or more and less than 20 is denoted as A)	29.3
CCC(CC)[C@H]1C(=O)N(C)[C@H](C(=O)N(C)C)CC(=O)N(C)[C@@H](COC)C(=O)N[C@@H]([C@@H](C)CC)C(=O)N(C)CC(=O)N(C)[C@H]2C/C=C\CCN(C2=O)[C@@H](Cc2ccc(C)cc2)C(=O)N(C)CC(=O)N[C@@H](CCc2ccc(C(F)(F)F)c(OC)c2)C(=O)N2CCCCC[C@H]2C(=O)NC2(CC(C)(C)C2)C(=O)N1C [PP2970]	0.46	A (a compound having 10 or more and less than 20 is denoted as A)	A (a compound having 10 or more and less than 20 is denoted as A)	23
CCC(CC)[C@H]1C(=O)N(C)[C@H](C(=O)N(C)C)CC(=O)N(C)[C@@H](COC)C(=O)N[C@@H]([C@@H](C)CC)C(=O)N(C)CC(=O)N(C)[C@H]2C/C=C\CCN(C2=O)[C@@H](Cc2ccc(C)cc2)C(=O)N(C)CC(=O)N[C@@H](CCc2ccc(Cl)c(Cl)c2)C(=O)N2CCCCC[C@H]2C(=O)NC2(CC(C)(C)C2)C(=O)N1C [PP2974]	1.3	A (a compound having 10 or more and less than 20 is denoted as A)	A (a compound having 10 or more and less than 20 is denoted as A)	38.6
C#CC[C@H]1C(=O)N[C@@H]([C@@H](C)CC)C(=O)N(C)CC(=O)N(C)[C@H]2C/C=C\CCN(C2=O)[C@@H](Cc2ccc(C)cc2)C(=O)N(C)CC(=O)N[C@@H](CCc2cc(F)c(C(F)(F)F)c(F)c2)C(=O)N2CC3(CC3)C[C@H]2C(=O)NC2(CC(C)(C)C2)C(=O)N(C)[C@@H](C2CCCC2)C(=O)N(C)[C@H](C(=O)N(C)C)CC(=O)N1C [PP2978]	0.11	A (a compound having 10 or more and less than 20 is denoted as A)	A (a compound having 10 or more and less than 20 is denoted as A)	5.9
